Where “and” joins values, the source holds several entries; their conditions need not be identical. Identical values can stand only once. Results filed as inconclusive are left out.

The test system of the experiment is BDF1 mice, colon carcinoma 38 sc, T/C %. The experiment is described as follows: NCI In Vivo Anticancer Drug Screen. Data for tumor model Colon Carcinoma 38 (subcutaneous) in B6D2F1 (BDF1) mice. The following applies: endpoint: median tumor weight (est.), higher = larger tumour. In outline: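 Mice with transplanted tumors are treated with compound or vehicle. Survival or tumor size is then measured in both groups. The ratio of treated to control gives the reported figure.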

Where [1] appears, read: dose: 12.5 mg/kg/injection, schedule: Q07DX002 (ip), vehicle: suspension in saline.
[2] abbreviates: dose: 25.0 mg/kg/injection, schedule: Q07DX002 (ip), vehicle: suspension in saline.
Where [3] appears, read: dose: 50.0 mg/kg/injection, schedule: Q07DX002 (ip), vehicle: saline.
The mark [4] stands for this setting: dose: 50.0 mg/kg/injection, schedule: Q07DX002 (ip), vehicle: suspension in saline.
Where [5] appears, read: dose: 100.0 mg/kg/injection, schedule: Q07DX002 (ip), vehicle: suspension in saline.
The mark [6] stands for this setting: dose: 200.0 mg/kg/injection, schedule: Q07DX002 (ip), vehicle: suspension in saline.

With `Cc1cc(=NO)cc(C)n1O`, the T/C runs as follows: (dose: 50.0 mg/kg/injection, schedule: Q07DX002 (ip), vehicle: distilled water + alcohol) 80 % of control; (dose: 100.0 mg/kg/injection, schedule: Q07DX002 (ip), vehicle: distilled water + alcohol) 80 % of control; (dose: 200.0 mg/kg/injection, schedule: Q07DX002 (ip), vehicle: distilled water + alcohol) 98 % of control; (dose: 400.0 mg/kg/injection, schedule: Q07DX002 (ip), vehicle: distilled water + alcohol) 106 % of control; (dose: 800.0 mg/kg/injection, schedule: Q07DX002 (ip), vehicle: distilled water + alcohol) 86 % of control.

With `Nc1nc(=S)c2ncn(C3CC(O)C(CO)O3)c2[nH]1` (centres undefined), the T/C is 63 % of control (dose: 4.0 mg/kg/injection, schedule: Q07DX003 (ip), vehicle: saline with Tween-80); 32 % of control (dose: 5.0 mg/kg/injection, schedule: Q07DX003 (ip), vehicle: saline with Tween-80); 111 % of control (dose: 8.0 mg/kg/injection, schedule: Q07DX003 (ip), vehicle: saline with Tween-80); 22 % of control (dose: 10.0 mg/kg/injection, schedule: Q07DX003 (ip), vehicle: saline with Tween-80); 39 % of control (dose: 16.0 mg/kg/injection, schedule: Q07DX003 (ip), vehicle: saline with Tween-80); 25 % of control (dose: 20.0 mg/kg/injection, schedule: Q07DX003 (ip), vehicle: saline with Tween-80). Moreover, the T/C by setting is: (dose: 32.0 mg/kg/injection, schedule: Q07DX003 (ip), vehicle: saline with Tween-80) 89 % of control; (dose: 40.0 mg/kg/injection, schedule: Q07DX003 (ip), vehicle: saline with Tween-80) 14 % of control; (dose: 64.0 mg/kg/injection, schedule: Q07DX003 (ip), vehicle: saline with Tween-80) 110 % of control; (dose: 80.0 mg/kg/injection, schedule: Q07DX003 (ip), vehicle: saline with Tween-80) 4 % of control; (dose: 128.0 mg/kg/injection, schedule: Q07DX003 (ip), vehicle: saline with Tween-80) 36 % of control.

As for `COc1cc(C(=O)N/N=C/c2cccc([N+](=O)[O-])c2)cc(OC)c1OC`, the T/C (dose: 25.0 mg/kg/injection, schedule: Q07DX002 (ip), vehicle: saline with Tween-80) is 93 % of control; the T/C (dose: 50.0 mg/kg/injection, schedule: Q07DX002 (ip), vehicle: saline with Tween-80) was 124 % of control; the T/C (dose: 100.0 mg/kg/injection, schedule: Q07DX002 (ip), vehicle: saline with Tween-80) is 107 % of control; the T/C (dose: 200.0 mg/kg/injection, schedule: Q07DX002 (ip), vehicle: saline with Tween-80) was 101 % of control.

For `N=C(N)SCc1c2ccccc2c(CSC(=N)N)c2ccccc12`, the T/C is 63 % of control (dose: 6.25 mg/kg/injection, schedule: Q07DX002 (ip), vehicle: suspension in saline); 93 % of control and 100 % of control (dose: 12.5 mg/kg/injection, schedule: Q07DX002 (ip), vehicle: saline); 92 % of control under setting [1]; 83 % of control under setting [2]; 71 % of control and 89 % of control under setting [3]; 64 % of control under setting [4]. For the same compound, the T/C under setting [5] is 115 % of control and the T/C under setting [6] is 97 % of control.

Take `S=P(N1CC1)(N1CC1)N1CC1`: the T/C was 99 % of control (dose: 1.5 mg/kg/injection, schedule: Q07DX003 (ip), vehicle: saline); 50 % of control (dose: 3.0 mg/kg/injection, schedule: Q07DX003 (ip), vehicle: saline); 55 % of control (dose: 6.0 mg/kg/injection, schedule: Q07DX003 (ip), vehicle: saline).

With `C[C@]12CCC(=O)C=C1CC[C@@H]1[C@@H]2C(=O)C[C@@]2(C)[C@H]1CC[C@]2(O)C(=O)CO`, the T/C runs as follows: (dose: 40.0 mg/kg/injection, schedule: Q07DX003 (ip), vehicle: Klucel (hydroxypropylcellulose) (HPC)) 74 % of control; (dose: 50.0 mg/kg/injection, schedule: Q07DX002 (ip), vehicle: Klucel (hydroxypropylcellulose) (HPC)) 117 % of control; (dose: 80.0 mg/kg/injection, schedule: Q07DX003 (ip), vehicle: Klucel (hydroxypropylcellulose) (HPC)) 88 % of control; (dose: 100.0 mg/kg/injection, schedule: Q07DX002 (ip), vehicle: Klucel (hydroxypropylcellulose) (HPC)) 69 % of control; (dose: 160.0 mg/kg/injection, schedule: Q07DX003 (ip), vehicle: Klucel (hydroxypropylcellulose) (HPC)) 66 % of control; (dose: 200.0 mg/kg/injection, schedule: Q07DX002 (ip), vehicle: Klucel (hydroxypropylcellulose) (HPC)) 45 % of control. The T/C (dose: 320.0 mg/kg/injection, schedule: Q07DX003 (ip), vehicle: Klucel (hydroxypropylcellulose) (HPC)) is 74 % of control; the T/C (dose: 400.0 mg/kg/injection, schedule: Q07DX002 (ip), vehicle: Klucel (hydroxypropylcellulose) (HPC)) was 53 % of control; the T/C (dose: 640.0 mg/kg/injection, schedule: Q07DX003 (ip), vehicle: Klucel (hydroxypropylcellulose) (HPC)) is 47 % of control; the T/C (dose: 800.0 mg/kg/injection, schedule: Q07DX002 (ip), vehicle: Klucel (hydroxypropylcellulose) (HPC)) was 66 % of control; the T/C (dose: 1200.0 mg/kg/injection, schedule: Q07DX002 (ip), vehicle: Klucel (hydroxypropylcellulose) (HPC)) is 67 % of control.

As for `O=CC(S)CO` (centres undefined), the T/C was 76 % of control under setting [1], 95 % of control under setting [2], 113 % of control under setting [4] and 97 % of control under setting [6].

On to `CC12CC(C(=O)O)C3(O)CC(C)(C1)CC(C)(C2)C3` (centres undefined) (tested in a mixture with another compound), for which the T/C (dose: 12.5 mg/kg/injection, schedule: Q07DX003 (ip), vehicle: Klucel (hydroxypropylcellulose) (HPC)) is 70 % of control; the T/C (dose: 25.0 mg/kg/injection, schedule: Q07DX003 (ip), vehicle: Klucel (hydroxypropylcellulose) (HPC)) is 94 % of control; the T/C (dose: 50.0 mg/kg/injection, schedule: Q07DX003 (ip), vehicle: Klucel (hydroxypropylcellulose) (HPC)) is 93 % of control; the T/C (dose: 100.0 mg/kg/injection, schedule: Q07DX003 (ip), vehicle: Klucel (hydroxypropylcellulose) (HPC)) was 121 % of control; the T/C (dose: 200.0 mg/kg/injection, schedule: Q07DX003 (ip), vehicle: Klucel (hydroxypropylcellulose) (HPC)) is 84 % of control.

For `Cc1cc2nc3c(=O)[nH]c(=O)nc-3n(CC(O)C(O)C(O)C(O)CO)c2cc1C` (centres undefined), the T/C is, setting by setting: under setting [3], 100 % of control; (dose: 100.0 mg/kg/injection, schedule: Q07DX002 (ip), vehicle: saline) 124 % of control; under setting [5], 77 % of control; (dose: 200.0 mg/kg/injection, schedule: Q07DX002 (ip), vehicle: saline) 108 % of control; (dose: 400.0 mg/kg/injection, schedule: Q07DX002 (ip), vehicle: saline) 100 % of control; (dose: 800.0 mg/kg/injection, schedule: Q07DX002 (ip), vehicle: saline) 78 % of control. Also, the T/C (dose: 800.0 mg/kg/injection, schedule: Q07DX002 (ip), vehicle: suspension in saline) was 58 % of control and 69 % of control; the T/C (dose: 1600.0 mg/kg/injection, schedule: Q07DX002 (ip), vehicle: saline) was 72 % of control.

The record behind these values is PubChem BioAssay AID212 (DTP/NCI, 2004).
